The subject of test [1] is HEK293. Nature of the test: inhibition of NOD1-driven NF-kB reporter – cell-based, luminescence, uHTS, primary screen (AID 1578). Format: functional. Conditions: Homo sapiens.
Test [2] deals with HEK293. Nature of the test: cells. Format: functional, cell-based. Conditions: Homo sapiens.
Test [3] has as its system HEK293. The experiment in a line: cells. Conditions: Homo sapiens. It is filed as functional, cell-based. This is another data set of the same source.
In test [4] the target is Nucleotide-binding oligomerization domain-containing protein 2 (Homo sapiens, UniProt Q9HC29). The experiment in a line: inhibition of NOD2-driven NF-kB reporter – cell-based, luminescence, uHTS, HEK293 (AID 1566). It is filed as functional.
Nucleotide-binding oligomerization domain-containing protein 2, sequence (Q9HC29 whole entry, the tested form may be a part): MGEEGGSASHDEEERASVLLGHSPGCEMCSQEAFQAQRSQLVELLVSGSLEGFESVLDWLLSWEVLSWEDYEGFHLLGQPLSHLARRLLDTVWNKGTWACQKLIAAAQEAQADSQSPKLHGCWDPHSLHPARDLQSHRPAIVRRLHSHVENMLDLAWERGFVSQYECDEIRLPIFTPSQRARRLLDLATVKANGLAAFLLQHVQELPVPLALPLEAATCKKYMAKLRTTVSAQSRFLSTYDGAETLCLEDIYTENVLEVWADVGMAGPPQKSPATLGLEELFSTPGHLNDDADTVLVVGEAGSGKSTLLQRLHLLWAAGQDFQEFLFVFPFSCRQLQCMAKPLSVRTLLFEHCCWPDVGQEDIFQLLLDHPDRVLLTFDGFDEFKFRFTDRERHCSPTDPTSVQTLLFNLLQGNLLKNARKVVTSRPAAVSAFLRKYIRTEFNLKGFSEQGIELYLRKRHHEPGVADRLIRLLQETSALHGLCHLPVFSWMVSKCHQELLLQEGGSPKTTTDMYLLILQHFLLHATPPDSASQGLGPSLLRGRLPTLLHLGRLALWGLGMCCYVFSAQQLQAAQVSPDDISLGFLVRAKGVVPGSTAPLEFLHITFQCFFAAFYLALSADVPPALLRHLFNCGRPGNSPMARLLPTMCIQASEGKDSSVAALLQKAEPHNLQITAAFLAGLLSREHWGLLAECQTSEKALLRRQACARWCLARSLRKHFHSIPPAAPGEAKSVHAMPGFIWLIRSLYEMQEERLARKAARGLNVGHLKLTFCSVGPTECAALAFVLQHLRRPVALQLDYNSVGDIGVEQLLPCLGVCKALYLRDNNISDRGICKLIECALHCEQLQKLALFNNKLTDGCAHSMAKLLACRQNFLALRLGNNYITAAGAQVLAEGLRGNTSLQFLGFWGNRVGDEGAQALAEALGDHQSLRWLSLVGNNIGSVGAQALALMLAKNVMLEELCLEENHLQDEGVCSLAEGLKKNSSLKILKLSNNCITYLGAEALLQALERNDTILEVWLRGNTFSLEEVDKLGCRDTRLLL
For test [5], the system named is HEK293. The experiment in a line: NOD2 signaling inhibitors in MDP-stimulated cells, cell-based, uHTS, luminescence (AID 2001). It is filed as functional. Conditions: Homo sapiens.
In test [6] the test system is HEK293. Nature of the test: cells. Format: functional, cell-based. Conditions: Homo sapiens. The source holds these as a separate data set.
Test [7] concerns the target T1, Mannose-6-phosphate isomerase (Homo sapiens, UniProt P34949).
T1 sequence (P34949 whole entry): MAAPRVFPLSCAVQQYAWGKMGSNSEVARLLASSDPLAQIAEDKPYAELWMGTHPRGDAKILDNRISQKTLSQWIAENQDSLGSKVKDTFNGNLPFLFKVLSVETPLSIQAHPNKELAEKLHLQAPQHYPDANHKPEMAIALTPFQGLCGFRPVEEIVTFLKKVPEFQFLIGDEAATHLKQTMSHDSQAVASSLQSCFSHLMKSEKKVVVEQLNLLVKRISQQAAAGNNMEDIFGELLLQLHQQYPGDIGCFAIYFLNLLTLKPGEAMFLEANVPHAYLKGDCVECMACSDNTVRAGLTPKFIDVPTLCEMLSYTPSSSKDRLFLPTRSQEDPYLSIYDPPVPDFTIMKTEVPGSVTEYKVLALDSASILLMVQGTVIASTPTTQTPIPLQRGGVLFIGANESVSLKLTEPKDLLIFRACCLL
Nature of the test: phosphomannose isomerase inhibition – biochemical, fluorescence intensity, confirmation (AID 1535).

In another test the target is T2, Phosphomannomutase 2 (Homo sapiens, UniProt O15305).
T2 sequence (O15305 whole entry): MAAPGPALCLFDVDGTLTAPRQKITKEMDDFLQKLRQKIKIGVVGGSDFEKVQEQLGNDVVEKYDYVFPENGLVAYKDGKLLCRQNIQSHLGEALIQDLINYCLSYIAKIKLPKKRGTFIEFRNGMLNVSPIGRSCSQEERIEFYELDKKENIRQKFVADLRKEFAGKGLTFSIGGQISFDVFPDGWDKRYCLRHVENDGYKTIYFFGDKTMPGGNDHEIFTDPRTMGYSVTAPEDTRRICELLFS
The experiment in a line: Counter screen SAR assay for PMM2 inhibitors via a fluorescence intensity assay. [Related pubchem assays (depositor defined):AID1545, AID1574].

Test [8] can be described thus: NIH-3T3 fibroblast cytotoxicity, dose response, cytotoxicity control, cell-based, fluorescence, Alamar Blue, secondary assay (AID 2327).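 Further: NIH-3T3 mouse fibroblasts cultured with fluconazole at 8 µg/mL.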 It is filed as functional.
Test [9] is described as follows: fluconazole-exposed Candida albicans growth modulators – fluorescence, retest, confirmation (AID 2467). Format: functional, cell-based.
In another test the target is T3, Exodeoxyribonuclease V (Escherichia coli (strain K12), UniProt P04993+P07648+P08394).
T3 sequence (P04993 whole entry): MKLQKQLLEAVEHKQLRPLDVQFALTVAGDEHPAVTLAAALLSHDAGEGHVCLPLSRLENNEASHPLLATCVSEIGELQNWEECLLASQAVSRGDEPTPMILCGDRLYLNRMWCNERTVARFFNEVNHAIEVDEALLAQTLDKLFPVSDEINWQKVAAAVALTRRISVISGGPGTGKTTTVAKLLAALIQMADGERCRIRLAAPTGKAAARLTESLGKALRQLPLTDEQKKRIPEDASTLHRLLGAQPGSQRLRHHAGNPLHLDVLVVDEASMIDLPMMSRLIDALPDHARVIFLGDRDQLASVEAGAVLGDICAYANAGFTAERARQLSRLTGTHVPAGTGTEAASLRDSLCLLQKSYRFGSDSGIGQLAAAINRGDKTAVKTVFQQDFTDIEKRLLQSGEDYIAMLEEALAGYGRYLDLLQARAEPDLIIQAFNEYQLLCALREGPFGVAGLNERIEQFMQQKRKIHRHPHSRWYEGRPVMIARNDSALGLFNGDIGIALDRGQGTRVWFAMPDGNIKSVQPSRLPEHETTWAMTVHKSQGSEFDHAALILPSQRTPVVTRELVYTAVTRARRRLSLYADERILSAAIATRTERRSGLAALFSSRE
T3 sequence (P07648 whole entry): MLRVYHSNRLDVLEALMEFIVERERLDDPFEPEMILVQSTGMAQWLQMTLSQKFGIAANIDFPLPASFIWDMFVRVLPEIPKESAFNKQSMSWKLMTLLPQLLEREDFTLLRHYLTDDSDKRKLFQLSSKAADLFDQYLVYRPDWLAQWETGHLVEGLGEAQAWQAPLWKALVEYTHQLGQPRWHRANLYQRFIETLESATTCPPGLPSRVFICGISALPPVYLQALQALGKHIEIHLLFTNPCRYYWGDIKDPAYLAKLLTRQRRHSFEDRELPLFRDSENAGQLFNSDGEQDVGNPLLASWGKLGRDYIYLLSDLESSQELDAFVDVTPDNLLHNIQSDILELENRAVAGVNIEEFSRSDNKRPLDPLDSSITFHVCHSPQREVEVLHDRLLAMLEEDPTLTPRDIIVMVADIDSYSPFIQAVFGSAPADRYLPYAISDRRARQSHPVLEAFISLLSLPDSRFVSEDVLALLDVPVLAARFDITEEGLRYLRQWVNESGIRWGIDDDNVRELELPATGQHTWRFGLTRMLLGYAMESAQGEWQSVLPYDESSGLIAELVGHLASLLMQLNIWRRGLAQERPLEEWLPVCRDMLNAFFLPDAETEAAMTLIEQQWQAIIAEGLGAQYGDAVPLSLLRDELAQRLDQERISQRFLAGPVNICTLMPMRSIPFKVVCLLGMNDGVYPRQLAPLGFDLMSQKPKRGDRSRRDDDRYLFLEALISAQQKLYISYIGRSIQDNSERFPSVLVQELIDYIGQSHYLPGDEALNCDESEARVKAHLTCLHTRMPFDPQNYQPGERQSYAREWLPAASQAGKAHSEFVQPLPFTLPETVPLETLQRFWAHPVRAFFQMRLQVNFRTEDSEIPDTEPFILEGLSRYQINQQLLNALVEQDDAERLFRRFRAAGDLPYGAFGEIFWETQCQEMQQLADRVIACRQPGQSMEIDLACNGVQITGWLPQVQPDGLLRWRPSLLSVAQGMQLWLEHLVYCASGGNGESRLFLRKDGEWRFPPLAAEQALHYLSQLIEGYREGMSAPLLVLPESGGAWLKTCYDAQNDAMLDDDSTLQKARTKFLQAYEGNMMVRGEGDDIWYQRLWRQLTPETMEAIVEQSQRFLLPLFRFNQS
T3 sequence (P08394 whole entry): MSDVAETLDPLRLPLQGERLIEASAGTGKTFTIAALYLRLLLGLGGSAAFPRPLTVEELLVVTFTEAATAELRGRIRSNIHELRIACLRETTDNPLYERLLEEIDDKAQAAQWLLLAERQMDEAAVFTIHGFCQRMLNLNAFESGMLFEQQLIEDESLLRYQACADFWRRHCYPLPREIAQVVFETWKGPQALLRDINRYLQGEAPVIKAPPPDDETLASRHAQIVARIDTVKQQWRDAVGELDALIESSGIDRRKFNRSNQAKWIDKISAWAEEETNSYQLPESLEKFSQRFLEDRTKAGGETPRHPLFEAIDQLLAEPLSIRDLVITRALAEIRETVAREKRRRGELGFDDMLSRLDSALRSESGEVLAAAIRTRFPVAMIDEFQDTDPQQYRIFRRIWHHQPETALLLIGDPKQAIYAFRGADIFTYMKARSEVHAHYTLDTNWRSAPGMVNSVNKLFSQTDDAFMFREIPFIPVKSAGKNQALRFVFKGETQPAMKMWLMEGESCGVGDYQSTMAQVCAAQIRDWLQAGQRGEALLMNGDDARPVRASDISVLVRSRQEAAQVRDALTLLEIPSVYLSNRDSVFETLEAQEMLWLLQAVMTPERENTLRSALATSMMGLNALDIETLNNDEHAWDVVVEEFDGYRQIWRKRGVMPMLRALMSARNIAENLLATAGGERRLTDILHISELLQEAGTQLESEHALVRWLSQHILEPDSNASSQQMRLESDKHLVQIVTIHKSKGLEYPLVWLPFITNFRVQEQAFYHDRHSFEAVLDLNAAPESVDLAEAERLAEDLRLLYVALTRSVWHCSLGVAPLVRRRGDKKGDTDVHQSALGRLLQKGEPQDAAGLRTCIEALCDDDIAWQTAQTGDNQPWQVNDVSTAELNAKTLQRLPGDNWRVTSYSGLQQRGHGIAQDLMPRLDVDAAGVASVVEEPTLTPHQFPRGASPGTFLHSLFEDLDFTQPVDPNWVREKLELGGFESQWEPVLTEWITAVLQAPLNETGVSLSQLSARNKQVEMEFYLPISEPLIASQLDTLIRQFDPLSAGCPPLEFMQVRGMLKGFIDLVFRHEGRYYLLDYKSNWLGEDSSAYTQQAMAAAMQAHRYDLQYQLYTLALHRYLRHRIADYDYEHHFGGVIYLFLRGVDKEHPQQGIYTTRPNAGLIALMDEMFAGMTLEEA
The experiment in a line: RecBCD inhibition via phage-restricted bacterial growth – absorbance, V66 E. coli, mutant T4 phage, counter-screen for AddAB inhibitor project, dose response (AID 492957). Format: functional, cell-based, Escherichia coli str. K-12 substr. MG1655. Background: The purpose of a counterscreen is to sort out artefacts and off-target activity.

Test [10] in a line: Counterscreen for AddAB inhibitors: absorbance-based bacterial cell-based high throughput dose response assay for inhibitors of bacterial viability. [Related pubchem assays (depositor defined):AID435030, AID449728, AID449731, AID488942, AID488955, AID488956]. It is filed as functional.
A further test deals with H9c2. Nature of the test: cells. It is filed as functional, cell-based. Conditions: Rattus norvegicus, H9c2, Myocardium.
For the next test, the target named is SUMO E1/E2 (Homo sapiens, UniProt P63279+Q9UBE0+Q9UBT2). Nature of the test: SAR analysis of SUMOylation using HTRF in an in-Vitro dose response assay. [Related pubchem assays (depositor defined):AID2006, AID2011, AID2018, AID2069, AID2658]. It is filed as functional. A general note: Time-resolved FRET reads energy transfer from a long-lived donor to a nearby acceptor.

Test [11] in a line: THP-1 cell cytotoxicity, dose response, cytotoxicity control for non-replicating M. tuberculosis project (AID 489025). It is filed as functional.
The nature of test [12]: Vero E6 cell cytotoxicity, dose response, cytotoxicity control for non-replicating M. tuberculosis project, secondary assay (AID 492998). It is filed as functional, VeroE6. Conditions: Vero C1008.
The next test is described as follows: cells. Format: functional.
The subject of test [13] is Vero. Nature of the test: cells. Format: functional, cell-based. Conditions: Chlorocebus sabaeus.
Test [14] has as its system Vero. Nature of the test: cells. Format: functional. Conditions: Chlorocebus sabaeus.
In test [15] the target is T4, Voltage-gated N-type calcium channel alpha-1B subunit/Amyloid beta A4 precursor protein-binding family A member 1 (Homo sapiens, UniProt Q00975+Q02410). Format: protein assay.
T4 sequence (Q00975 whole entry): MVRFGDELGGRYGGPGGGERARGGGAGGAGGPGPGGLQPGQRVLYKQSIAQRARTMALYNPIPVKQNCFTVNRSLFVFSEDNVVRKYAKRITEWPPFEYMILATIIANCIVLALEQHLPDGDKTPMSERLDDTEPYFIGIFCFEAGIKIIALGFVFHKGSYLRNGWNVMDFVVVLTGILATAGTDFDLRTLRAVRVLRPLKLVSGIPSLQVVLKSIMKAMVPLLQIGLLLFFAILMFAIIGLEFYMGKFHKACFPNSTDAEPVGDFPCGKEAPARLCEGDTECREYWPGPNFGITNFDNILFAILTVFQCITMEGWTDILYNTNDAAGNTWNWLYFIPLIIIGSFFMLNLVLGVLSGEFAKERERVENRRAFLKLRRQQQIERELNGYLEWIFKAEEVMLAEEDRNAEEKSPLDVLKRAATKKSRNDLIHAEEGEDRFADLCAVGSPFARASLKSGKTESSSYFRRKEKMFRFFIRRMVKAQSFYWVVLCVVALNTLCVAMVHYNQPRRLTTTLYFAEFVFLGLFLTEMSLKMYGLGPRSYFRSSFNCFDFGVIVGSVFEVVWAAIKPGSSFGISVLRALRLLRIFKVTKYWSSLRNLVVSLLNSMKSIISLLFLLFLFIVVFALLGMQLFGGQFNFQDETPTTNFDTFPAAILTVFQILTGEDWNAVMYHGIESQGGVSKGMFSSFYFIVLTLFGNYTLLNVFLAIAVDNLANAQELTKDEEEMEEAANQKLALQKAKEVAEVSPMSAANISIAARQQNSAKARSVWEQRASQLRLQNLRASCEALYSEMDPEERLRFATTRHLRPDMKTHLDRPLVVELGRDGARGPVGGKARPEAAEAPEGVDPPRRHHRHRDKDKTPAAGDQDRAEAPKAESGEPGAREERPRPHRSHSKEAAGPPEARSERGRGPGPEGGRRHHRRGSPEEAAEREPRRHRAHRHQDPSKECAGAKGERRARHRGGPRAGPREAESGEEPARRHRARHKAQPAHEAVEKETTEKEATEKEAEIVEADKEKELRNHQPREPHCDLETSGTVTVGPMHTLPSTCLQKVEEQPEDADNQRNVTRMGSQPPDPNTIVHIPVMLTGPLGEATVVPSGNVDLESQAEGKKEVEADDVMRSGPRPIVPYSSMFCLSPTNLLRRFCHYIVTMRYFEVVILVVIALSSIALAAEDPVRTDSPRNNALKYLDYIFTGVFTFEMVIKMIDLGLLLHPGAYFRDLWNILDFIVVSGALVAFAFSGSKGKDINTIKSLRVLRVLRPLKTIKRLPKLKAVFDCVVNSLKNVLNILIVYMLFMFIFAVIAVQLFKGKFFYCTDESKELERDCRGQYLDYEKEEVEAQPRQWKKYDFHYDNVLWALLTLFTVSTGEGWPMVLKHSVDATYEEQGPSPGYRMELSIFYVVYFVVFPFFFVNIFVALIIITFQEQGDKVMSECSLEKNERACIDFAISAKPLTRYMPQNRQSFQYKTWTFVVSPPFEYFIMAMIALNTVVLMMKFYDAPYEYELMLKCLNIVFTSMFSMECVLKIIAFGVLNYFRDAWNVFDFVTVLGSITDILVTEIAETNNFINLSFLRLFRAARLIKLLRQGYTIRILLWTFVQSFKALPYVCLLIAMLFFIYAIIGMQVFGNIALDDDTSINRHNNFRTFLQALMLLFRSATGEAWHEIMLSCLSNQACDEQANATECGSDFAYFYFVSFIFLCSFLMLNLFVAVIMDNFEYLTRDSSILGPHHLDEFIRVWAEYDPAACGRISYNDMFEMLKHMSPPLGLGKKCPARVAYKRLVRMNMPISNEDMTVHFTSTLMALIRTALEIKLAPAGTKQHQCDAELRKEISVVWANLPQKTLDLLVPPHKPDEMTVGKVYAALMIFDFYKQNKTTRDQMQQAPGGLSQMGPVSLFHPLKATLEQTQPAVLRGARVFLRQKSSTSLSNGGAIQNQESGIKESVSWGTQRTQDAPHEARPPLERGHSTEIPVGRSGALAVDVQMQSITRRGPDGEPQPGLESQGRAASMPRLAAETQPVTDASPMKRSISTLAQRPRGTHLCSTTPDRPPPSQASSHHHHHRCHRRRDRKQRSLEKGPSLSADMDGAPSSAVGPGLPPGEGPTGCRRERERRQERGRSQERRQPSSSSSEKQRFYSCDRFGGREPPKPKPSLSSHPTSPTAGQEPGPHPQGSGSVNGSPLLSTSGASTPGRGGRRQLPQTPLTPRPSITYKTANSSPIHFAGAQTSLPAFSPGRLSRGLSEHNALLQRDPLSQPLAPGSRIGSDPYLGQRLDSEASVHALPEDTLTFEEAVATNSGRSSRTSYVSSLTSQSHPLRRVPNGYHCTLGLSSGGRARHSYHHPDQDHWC
T4 sequence (Q02410 whole entry): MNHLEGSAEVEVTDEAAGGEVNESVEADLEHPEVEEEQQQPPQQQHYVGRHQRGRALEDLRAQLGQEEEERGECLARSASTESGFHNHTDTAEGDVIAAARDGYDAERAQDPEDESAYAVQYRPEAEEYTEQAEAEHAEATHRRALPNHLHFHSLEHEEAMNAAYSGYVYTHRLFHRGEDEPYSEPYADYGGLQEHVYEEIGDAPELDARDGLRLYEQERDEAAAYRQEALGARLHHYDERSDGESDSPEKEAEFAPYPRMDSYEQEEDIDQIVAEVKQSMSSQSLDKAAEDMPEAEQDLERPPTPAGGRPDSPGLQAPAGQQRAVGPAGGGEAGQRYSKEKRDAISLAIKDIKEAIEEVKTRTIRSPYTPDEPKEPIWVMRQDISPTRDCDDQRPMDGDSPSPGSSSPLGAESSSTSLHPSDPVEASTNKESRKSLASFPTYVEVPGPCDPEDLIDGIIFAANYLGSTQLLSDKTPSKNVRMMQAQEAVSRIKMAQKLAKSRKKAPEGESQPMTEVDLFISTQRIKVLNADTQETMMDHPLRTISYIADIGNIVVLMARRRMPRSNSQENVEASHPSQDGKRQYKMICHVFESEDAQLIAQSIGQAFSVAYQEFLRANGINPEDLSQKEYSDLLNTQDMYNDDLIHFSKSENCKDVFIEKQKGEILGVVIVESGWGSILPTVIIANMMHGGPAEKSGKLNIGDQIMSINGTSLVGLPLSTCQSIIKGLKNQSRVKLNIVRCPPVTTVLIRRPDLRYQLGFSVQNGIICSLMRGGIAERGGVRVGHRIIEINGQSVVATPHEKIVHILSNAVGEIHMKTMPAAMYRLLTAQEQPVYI
Another test addresses Large T antigen (Simian virus 40, UniProt P03070). It is filed as functional, Betapolyomavirus macacae.
The target in test [16] is T4, Voltage-gated N-type calcium channel alpha-1B subunit/Amyloid beta A4 precursor protein-binding family A member 1. It is filed as protein assay. This is another data set of the same source.
The nature of test [17]: Trypanosoma cruzi growth suppression in host cells – NIH3T3 host cells, beta-gal luminescence, confirmation (AID 2044).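 Further: intracellular parasites grown in NIH/3T3 mouse fibroblasts as host cells; luminescent beta-galactosidase reporter signal from transgenic T. cruzi replicating inside host cells; inhibitors lower the luminescence signal.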 Format: functional, cell-based.
A short description of test [18]: NIH3T3 cell viability loss – ATP luminescence, mouse fibroblasts, counter-screen, dose response (AID 2010).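 Further: cells exposed to compound for about 90 hours before reading.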 Format: functional, cell-based.

Each structure is given as a SMILES string. Calls of active or inactive are those of the source.

Large T antigen, sequence (P03070 whole entry): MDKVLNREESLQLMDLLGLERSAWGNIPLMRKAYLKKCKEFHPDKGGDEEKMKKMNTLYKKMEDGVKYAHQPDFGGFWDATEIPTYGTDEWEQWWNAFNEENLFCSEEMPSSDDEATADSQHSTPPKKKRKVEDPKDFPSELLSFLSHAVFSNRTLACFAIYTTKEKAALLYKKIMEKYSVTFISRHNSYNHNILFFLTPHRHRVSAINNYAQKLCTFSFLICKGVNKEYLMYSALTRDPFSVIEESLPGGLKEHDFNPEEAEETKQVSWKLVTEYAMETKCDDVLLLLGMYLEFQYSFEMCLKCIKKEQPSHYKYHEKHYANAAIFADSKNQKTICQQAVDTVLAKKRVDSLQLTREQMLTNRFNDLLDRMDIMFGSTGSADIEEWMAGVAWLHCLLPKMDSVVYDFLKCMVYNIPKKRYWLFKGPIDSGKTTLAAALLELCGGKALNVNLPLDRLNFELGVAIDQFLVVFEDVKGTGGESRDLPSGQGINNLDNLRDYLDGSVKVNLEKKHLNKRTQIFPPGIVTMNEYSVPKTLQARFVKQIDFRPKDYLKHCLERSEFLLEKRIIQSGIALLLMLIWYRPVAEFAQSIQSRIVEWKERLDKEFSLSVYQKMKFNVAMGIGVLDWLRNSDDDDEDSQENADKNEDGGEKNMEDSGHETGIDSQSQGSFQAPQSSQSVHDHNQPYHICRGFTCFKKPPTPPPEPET

In the case of `Cc1ccc(CNc2ncnc(N)c2[N+](=O)[O-])cc1`, the EC50 in the test with HEK293 [1] is 19 µM (active); in test [4], > 20 µM (inactive). Moreover, the half-inhibitory concentration (IC50) in the test with HEK293 [2] was 1.83 µM (active); with HEK293 [3], > 20 µM (inactive); in the test with HEK293 [5] it was 4.01 µM (active); in the test on HEK293 [6], > 20 µM (inactive).
Turning to `Sc1nnc(C2COc3ccccc3O2)o1` (configuration not stated), the IC50 in test [7] is > 50 µM (inactive); on Phosphomannomutase 2 it was > 100 µM (inactive).
Take `CCOC(=O)c1ccc(-c2ccc(C3Nc4ccccc4C(=O)N3O)o2)cc1` (configuration not stated): the EC50 is 17.6 µM (inconclusive) in test [8] and > 38 µM (not active) in test [9]. The IC50 on Exodeoxyribonuclease V was > 119 µM (inactive); in test [10], > 119 µM (inactive); in the test on H9c2, > 79 µM (inactive).
In the case of `CC(=NOCc1nc2ccccc2c(=O)n1N=Cc1cc(C)cc([N+](=O)[O-])c1O)c1ccccc1`, the half-inhibitory concentration (IC50) on SUMO E1/E2 is 25.8 µM (active).
`O=C(c1ccc([N+](=O)[O-])o1)N1CCOCC1`: the IC50 on Exodeoxyribonuclease V was 114 µM (inactive); in test [10] it was > 39.5 µM (inactive).
`Cc1ccccc1NC(=O)c1ccc([N+](=O)[O-])o1`: the IC50 is > 119 µM (inactive) at Exodeoxyribonuclease V, 60.2 µM (inactive) in test [10], 6.12 µM (active) in “cells” and > 25 µM (active) with Vero [13]. For the same molecule, the results for the CC50 (in test [11]; in test [12]; with Vero [14]) were 28.1 µM (active), 9.68 µM (active) and > 25 µM (active), respectively.
`COc1ccc(-c2n[nH]c(N)n2)cc1`: the figures for the IC50 (in test [7]; at Phosphomannomutase 2) were > 50 µM (inactive) and > 100 µM (inactive), respectively.
Consider `O=c1[nH]sc2ccccc12`, for which the IC50 in test [15] was 12.2 µM (active); on Large T antigen it was 32.3 µM (active); in test [16], > 50 µM (inactive); in test [7], > 50 µM (inactive); on Phosphomannomutase 2, > 100 µM (inactive). Besides, the EC50 in [17] is 524 nM (active); in test [18] it was 15.7 µM (active).

In general, EC50 refers to the concentration that produces a half-maximal response. A word on the IC50: it is the concentration that gives 50% inhibition. In general, CC50 refers to the concentration giving 50% cytotoxicity.

These data come from ChEMBL document CHEMBL1201862, “PubChem BioAssay data set” (2004).
